Experimental data published in PubChem BioAssay (NCI).
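At the GI50, growth is halved. The concentration for full growth arrest is given as TGI.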

Legend:
Test in all cases: NCI tumour cell line growth inhibition, 384-well format
HCT-15 colon = system: HCT-15 colon
NCI-H226 lung = system: NCI-H226 lung
OVCAR-5 ovarian = system: OVCAR-5 ovarian
CAKI-1 renal = system: CAKI-1 renal
HOP-92 NSCLC = system: HOP-92 NSCLC
IGROV1 ovarian = system: IGROV1 ovarian
KM12 colon = system: KM12 colon
MDA-MB-435 melanoma = system: MDA-MB-435 melanoma
SF-539 CNS = system: SF-539 CNS
SW-620 colon = system: SW-620 colon
SR leukemia = system: SR leukemia
K-562 leukemia = system: K-562 leukemia
SN12C renal = system: SN12C renal
HCT-116 colon = system: HCT-116 colon
MALME-3M melanoma = system: MALME-3M melanoma
PC-3 prostate = system: PC-3 prostate
OVCAR-3 ovarian = system: OVCAR-3 ovarian
A549 NSCLC = system: A549 NSCLC
UO-31 renal = system: UO-31 renal
NCI-H23 lung = system: NCI-H23 lung
RXF 393 renal = system: RXF 393 renal
MOLT-4 leukemia = system: MOLT-4 leukemia
NCI/ADR-RES ovarian = system: NCI/ADR-RES ovarian
HCC-2998 colon = system: HCC-2998 colon
NCI-H460 NSCLC = system: NCI-H460 NSCLC
NCI-H522 lung = system: NCI-H522 lung
DU-145 prostate = system: DU-145 prostate
HT29 colon = system: HT29 colon
OVCAR-4 ovarian = system: OVCAR-4 ovarian
SF-295 CNS = system: SF-295 CNS
HL-60(TB) leukemia = system: HL-60(TB) leukemia
UACC-257 melanoma = system: UACC-257 melanoma
786-0 renal = system: 786-0 renal
T-47D breast = system: T-47D breast
COLO 205 colon = system: COLO 205 colon
SK-MEL-2 melanoma = system: SK-MEL-2 melanoma
OVCAR-8 ovarian = system: OVCAR-8 ovarian
SNB-19 CNS = system: SNB-19 CNS
LOX IMVI melanoma = system: LOX IMVI melanoma
ACHN renal = system: ACHN renal
SK-MEL-28 melanoma = system: SK-MEL-28 melanoma
BT-549 breast = system: BT-549 breast
SK-MEL-5 melanoma = system: SK-MEL-5 melanoma
SF-268 CNS = system: SF-268 CNS
NCI-H322M lung = system: NCI-H322M lung
MDA-MB-231 breast = system: MDA-MB-231 breast
U251 glioblastoma = system: U251 glioblastoma
MCF7 breast = system: MCF7 breast
M14 melanoma = system: M14 melanoma
UACC-62 melanoma = system: UACC-62 melanoma
TK-10 renal = system: TK-10 renal
A498 renal = system: A498 renal
HOP-62 NSCLC = system: HOP-62 NSCLC
RPMI-8226 leukemia = system: RPMI-8226 leukemia
MDA-MB-468 breast = system: MDA-MB-468 breast
SK-OV-3 ovarian = system: SK-OV-3 ovarian
CCRF-CEM leukemia = system: CCRF-CEM leukemia

## COc1nnc2ccc(N3CCC(c4ccc(OCCN5CCN(C)C(=O)[C@H]5C)cc4)CC3)nn12
HCT-15 colon
  GI50: 31.7 nM
  TGI: 194 nM
NCI-H226 lung
  GI50: 38.9 nM
  TGI: 416 nM
OVCAR-5 ovarian
  GI50: 60.5 nM
  TGI: 2970 nM
CAKI-1 renal
  GI50: 16.9 nM
  TGI: 382 nM
HOP-92 NSCLC
  GI50: 12.7 nM
  TGI: 74.5 nM
IGROV1 ovarian
  GI50: 29.3 nM
  TGI: 162 nM
KM12 colon
  GI50: 46 nM
  TGI: 12500 nM
MDA-MB-435 melanoma
  GI50: 75.9 nM
  TGI: > 100000 nM
SF-539 CNS
  GI50: 53.9 nM
  TGI: 8620 nM
SW-620 colon
  GI50: 114 nM
  TGI: 1280 nM
SR leukemia
  GI50: < 10 nM
  TGI: 20.8 nM
K-562 leukemia
  GI50: 35 nM
  TGI: 3710 nM
SN12C renal
  GI50: 165 nM
  TGI: 1480 nM
HCT-116 colon
  GI50: 37.7 nM
  TGI: 2530 nM
MALME-3M melanoma
  GI50: 73.8 nM
  TGI: 791 nM
PC-3 prostate
  GI50: 122 nM
  TGI: 90700 nM
OVCAR-3 ovarian
  GI50: 17.2 nM
  TGI: 135 nM
A549 NSCLC
  GI50: 42.5 nM
  TGI: 1640 nM
UO-31 renal
  GI50: 56.9 nM
  TGI: 1560 nM
NCI-H23 lung
  GI50: 62.7 nM
  TGI: 629 nM
RXF 393 renal
  GI50: 22.8 nM
  TGI: 78.8 nM
MOLT-4 leukemia
  GI50: 14.3 nM
  TGI: 37.7 nM
NCI/ADR-RES ovarian
  GI50: 269 nM
  TGI: 2180 nM
HCC-2998 colon
  GI50: 13.3 nM
  TGI: 48.8 nM
NCI-H460 NSCLC
  GI50: 58.7 nM
  TGI: 15400 nM
NCI-H522 lung
  GI50: < 10 nM
  TGI: 46 nM
DU-145 prostate
  GI50: 369 nM
  TGI: > 100000 nM
HT29 colon
  GI50: 28.8 nM
  TGI: 2120 nM
OVCAR-4 ovarian
  GI50: 10.2 nM
  TGI: 40.2 nM
SF-295 CNS
  GI50: 86.4 nM
  TGI: 4970 nM
HL-60(TB) leukemia
  GI50: < 10 nM
  TGI: 19.1 nM
UACC-257 melanoma
  GI50: 25 nM
  TGI: 573 nM
786-0 renal
  GI50: 45.5 nM
  TGI: 13400 nM
T-47D breast
  GI50: 29.7 nM
  TGI: 537 nM
COLO 205 colon
  GI50: 35.9 nM
  TGI: 248 nM
SK-MEL-2 melanoma
  GI50: < 10 nM
  TGI: 41.3 nM
OVCAR-8 ovarian
  GI50: 23.9 nM
  TGI: 218 nM
SNB-19 CNS
  GI50: 311 nM
  TGI: 77900 nM
LOX IMVI melanoma
  GI50: 27.2 nM
  TGI: 61 nM
ACHN renal
  GI50: 108 nM
  TGI: 3050 nM
SK-MEL-28 melanoma
  GI50: 30.6 nM
  TGI: 1490 nM
BT-549 breast
  GI50: 23.1 nM
  TGI: 214 nM
SK-MEL-5 melanoma
  GI50: 17.8 nM
  TGI: 98.6 nM
SF-268 CNS
  GI50: 58.6 nM
  TGI: 14400 nM
NCI-H322M lung
  GI50: 28.9 nM
  TGI: 640 nM
MDA-MB-231 breast
  GI50: 46.2 nM
  TGI: 2570 nM
U251 glioblastoma
  GI50: 77.1 nM
  TGI: 11900 nM
MCF7 breast
  GI50: 11.7 nM
  TGI: 158 nM
M14 melanoma
  GI50: 18.3 nM
  TGI: 1570 nM
UACC-62 melanoma
  GI50: < 10 nM
  TGI: 96.4 nM
TK-10 renal
  GI50: 34.8 nM
  TGI: 460 nM
A498 renal
  GI50: 53.8 nM
  TGI: 655 nM
HOP-62 NSCLC
  GI50: 27.4 nM
  TGI: 475 nM
RPMI-8226 leukemia
  GI50: 12.2 nM
  TGI: 33.8 nM
MDA-MB-468 breast
  GI50: < 10 nM
  TGI: 51.2 nM
SK-OV-3 ovarian
  GI50: 17.3 nM
  TGI: 144 nM
CCRF-CEM leukemia
  GI50: 26.8 nM
  TGI: 166 nM
